Here are results for 27 compounds from patent US8846656B2, “Tetrahydropyrido-pyridine and tetrahydropyrido-pyrimidine compounds and use thereof as C5a receptor modulators” (Novartis AG, priority 2011, dated 2014).

The term IC50 denotes the point on the concentration scale where inhibition reaches its midpoint.

Chain of human C5aR (P21730 whole entry): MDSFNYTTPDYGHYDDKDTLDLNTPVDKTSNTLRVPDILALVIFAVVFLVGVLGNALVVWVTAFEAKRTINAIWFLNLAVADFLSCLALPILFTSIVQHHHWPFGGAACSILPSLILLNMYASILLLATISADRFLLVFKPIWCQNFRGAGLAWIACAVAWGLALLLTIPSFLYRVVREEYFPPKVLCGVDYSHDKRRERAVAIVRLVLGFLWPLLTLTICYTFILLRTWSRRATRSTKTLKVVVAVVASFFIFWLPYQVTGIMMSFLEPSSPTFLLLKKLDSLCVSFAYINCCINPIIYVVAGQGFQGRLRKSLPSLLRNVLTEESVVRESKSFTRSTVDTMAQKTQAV

The assay addresses human C5aR (Homo sapiens (Human), UniProt P21730). In words: FLIPR assay: inhibition of C5a-mediated calcium mobilization. It is filed as cell-based. As to conditions: stable cell line over expressing human C5aR & Gα15, human C5a at EC50 (0.1-0.25 nM). As for the experimental part:
Compounds were tested for their ability to inhibit C5a-mediated calcium mobilization using a stable cell line over expressing the human C5aR & the Gα15 protein on the FLIPR (Fluorescent Imaging Plate Reader) Tetra system. Cells were maintained in culture media containing DMEM (Dulbecco's Modified Eagle Medium) with 4.5 g/L glucose, 10% fetal bovine serum, 100 U/mL, 1× non-essential amino acid, and 250 μg/mL G418 (Geneticin). Prior to testing of compounds, cells were plated at 10,000 cells/well in clear bottom 384-well black plate, and incubated overnight at 37° C. with 5% CO2. On the day of experiment, culture media was removed, and replaced with assay buffer HBSS (Hanks' Balanced Salt Solution) with 20 mM HEPES (4-(2-hydroxyethyl)-1-piperazineethanesulfonic acid) and 0.1% BSA (bovine serum albumin) BSA containing calcium 5 dye (Molecular Devices) and 2.5 mM probenecid. After 1 hour incubation at 37° C., 5% CO2 for 60 min, cells were pre-incubated with compounds for 30 minutes at room temperature, in 1% DMSO (dimethyl sulfoxide).
Regarding `COc1ccc(Cl)cc1-c1nc2c(c(N3CCCC(C)(C)C3)n1)CN(c1cc(C(C)C)ccc1C)CC2` [Example 19-Q, 2-(5-chloro-2-methoxyphenyl)-4-(3,3-dimethylpiperidin-1-yl)-6-(5-isopropyl-2-methylphenyl)-5,6,7,8-tetrahydropyrido[4,3-d]pyrimidine], the half-inhibitory concentration (IC50) amounted to 112 nM. In the case of `CCn1nc(C)c(N2CCc3nc(-c4c(C)ccc5[nH]ncc45)cc(C)c3C2)c1C` [Example 40-P, 6-(1-ethyl-3,5-dimethyl-1H-pyrazol-4-yl)-4-methyl-2-(5-methyl-1H-indazol-4-yl)-5,6,7,8-tetrahydro-1,6-naphthyridine] it was 37 nM; in that of `CO[C@H]1C[C@H]2CC[C@@H](C1)N2c1nc(-c2c(C)cccc2C)nc2c1CN(c1cc(C3(C)COC3)ccc1C)CC2` [Example 21-X, 2-(2,6-dimethylphenyl)-4-((3-endo)-3-methoxy-8-azabicyclo[3.2.1]octan-8-yl)-6-(2-methyl-5-(3-methyloxetan-3-yl)phenyl)-5,6,7,8-tetrahydropyrido[4,3-d]pyrimidine], 308 nM; in that of `Cc1c[nH]c2cccc(-c3nc4c(c(N5CCN(CC(N)=O)[C@H](C)C5)n3)CN(c3ccc(F)cc3F)CC4)c12` [Example 24-I, (R)-2-(4-(6-(2,4-difluorophenyl)-2-(3-methyl-1H-indol-4-yl)-5,6,7,8-tetrahydropyrido[4,3-d]pyrimidin-4-yl)-2-methylpiperazin-1-yl)acetamide], 464 nM.

Turning to `CCc1cccc(CC)c1-c1cc(C)c2c(n1)CCN(c1ccc(C)cc1C)C2` [Example 40-L, 2-(2,6-diethylphenyl)-6-(2,4-dimethylphenyl)-4-methyl-5,6,7,8-tetrahydro-1,6-naphthyridine], the IC50 stood at 180 nM. Turning to `Cc1ccc(C(C)C)cc1N1CCc2nc(-c3cccc4[nH]cc(C)c34)nc(N3CC4(COC4)C3)c2C1` [Example 17-BE, 6-(6-(5-isopropyl-2-methylphenyl)-2-(3-methyl-1H-indol-4-yl)-5,6,7,8-tetrahydropyrido[4,3-d]pyrimidin-4-yl)-2-oxa-6-azaspiro[3.3]heptanes], the 50% inhibitory concentration (IC50) is 415 nM.

Take `COCCN(C)c1cc(-c2c(C)cccc2C)nc2c1CN(c1cc(C(C)C)ccc1C)CC2` [Example 51-D, 2-(2,6-dimethylphenyl)-6-(5-isopropyl-2-methylphenyl)-N-(2-methoxyethyl)-N-methyl-5,6,7,8-tetrahydro-1,6-naphthyridin-4-amine]: the IC50 is 197 nM.

As to `[2H]C1([2H])c2c(C)cc(-c3c(CC)cccc3CC)nc2CC(C)N1c1cc(C(C)C)ccc1C` (single isomer, unassigned) [Example 42-L, 2-(2,6-diethylphenyl)-6-(5-isopropyl-2-methylphenyl)-4,7-dimethyl-5,6,7,8-tetrahydro(5,5-^2H2)-1,6-naphthyridine], the IC50 came to 4 nM. In the case of `CCO[C@@H]1CCN(c2nc(-c3c(C)ccc4[nH]nc(C)c34)nc3c2CN(c2c(F)c(C4CC4)nn2C)CC3)CC1(C)C` [Example 56-E, (R)-6-(3-cyclopropyl-4-fluoro-1-methyl-1H-pyrazol-5-yl)-2-(3,5-dimethyl-1H-indazol-4-yl)-4-(4-ethoxy-3,3-dimethylpiperidin-1-yl)-5,6,7,8-tetrahydropyrido[4,3-d]pyrimidine], the 50% inhibitory concentration (IC50) is 2 nM.

In the case of `CO[C@@H]1CCN(c2nc(-c3c(C)ccc4[nH]nc(C)c34)nc3c2CN(c2c(Cl)c(C(F)F)nn2C)CC3)CC1(C)C` [Example 55-I, (R)-6-(4-chloro-3-(difluoromethyl)-1-methyl-1H-pyrazol-5-yl)-2-(3,5-dimethyl-1H-indazol-4-yl)-4-(4-methoxy-3,3-dimethylpiperidin-1-yl)-5,6,7,8-tetrahydropyrido[4,3-d]pyrimidine], the concentration for half-maximal inhibition (IC50) is 1 nM. In the case of `[2H]C1([2H])c2c(C)cc(-c3c(CC)cccc3CC)nc2CC(C)N1c1cc(C2CC2)nn1C` (stereo not drawn) [Example 42-H, 6-(3-cyclopropyl-1-methyl-1H-pyrazol-5-yl)-2-(2,6-diethylphenyl)-4,7-dimethyl-5,6,7,8-tetrahydro(5,5-^2H2)-1,6-naphthyridine] it was 58 nM; in that of `[2H]C1([2H])c2c(C)cc(-c3c(CC)cccc3CC)nc2CCN1c1c(C)ccnc1C` [Example 44-D, 2-(2,6-Diethylphenyl)-6-(2,4-dimethylpyridin-3-yl)-4-methyl-5,6,7,8-tetrahydro(5,5-^2H2)-1,6-naphthyridine], 131 nM; in that of `Cc1cc(-c2c(C)ccc3[nH]ncc23)nc2c1CN(c1cc(C3CC3)nn1C)CC2` [Example 40-Q, 6-(3-cyclopropyl-1-methyl-1H-pyrazol-5-yl)-4-methyl-2-(5-methyl-1H-indazol-4-yl)-5,6,7,8-tetrahydro-1,6-naphthyridine], 868 nM. On to `Cc1ccc(C(C)C)cc1N1CCc2nc(-c3cccc4[nH]cc(C)c34)nc(N[C@@H](CO)C(C)C)c2C1` [Example 17-M, (R)-2-((6-(5-isopropyl-2-methylphenyl)-2-(3-methyl-1H-indol-4-yl)-5,6,7,8-tetrahydropyrido[4,3-d]pyrimidin-4-yl)amino)-3-methylbutan-1-ol], for which the IC50 was 30 nM.

Regarding `CO[C@H]1CCN(c2nc(-c3cccc4cnn(C)c34)nc3c2CN(c2cc(C4(C)COC4)ccc2C)CC3)CC1(C)C` [Example 19-L, (S)-4-(4-methoxy-3,3-dimethylpiperidin-1-yl)-2-(1-methyl-1H-indazol-7-yl)-6-(2-methyl-5-(3-methyloxetan-3-yl)phenyl)-5,6,7,8-tetrahydropyrido[4,3-d]pyrimidine], the IC50 worked out at 746 nM. As to `Cc1ccccc1N1CCc2nc(-c3c(C)cccc3C)nc(N3CCOC(C)(C)C3)c2C1` [Example 17-Y, 4-(2-(2,6-dimethylphenyl)-6-(o-tolyl)-5,6,7,8-tetrahydropyrido[4,3-d]pyrimidin-4-yl)-2,2-dimethylmorpholine], the half-inhibitory concentration (IC50) came out at 160 nM. On to `Cc1ccc(C(C)C)cc1N1CCc2nc(-c3cccc4[nH]nc(C)c34)cc(C)c2C1` [Example 41-E, 6-(5-isopropyl-2-methylphenyl)-4-methyl-2-(3-methyl-1H-indazol-4-yl)-5,6,7,8-tetrahydro-1,6-naphthyridine], for which the IC50 amounted to 21 nM. For the compound `CCO[C@@H]1CCN(c2nc(-c3c(C)ccc4[nH]nc(C)c34)nc3c2CN(c2c(Cl)c(C4CC4)nn2C)CC3)[C@H](C)C1` [Example 55-J, 6-(4-chloro-3-cyclopropyl-1-methyl-1H-pyrazol-5-yl)-2-(3,5-dimethyl-1H-indazol-4-yl)-4-((2R,4R)-4-ethoxy-2-methylpiperidin-1-yl)-5,6,7,8-tetrahydropyrido[4,3-d]pyrimidine], the concentration for half-maximal inhibition (IC50) turned out to be 5 nM. Turning to `COCCN(C)c1cc(-c2c(C)cccc2C)nc2c1C(=O)N(c1cc(C(C)C)ccc1C)CC2` [Example 50-E, 2-(2,6-dimethylphenyl)-6-(5-isopropyl-2-methylphenyl)-4-((2-methoxyethyl)(methyl)amino)-7,8-dihydro-1,6-naphthyridin-5(6H)-one], the concentration for half-maximal inhibition (IC50) is 790 nM.

As for `CO[C@@H]1CCN(c2nc(-c3cccc4[nH]cc(C)c34)nc3c2CN(c2cc(C(C)C)ccc2C)CC3)CC1(C)C` [Example 17-AM, (R)-6-(5-Isopropyl-2-methylphenyl)-4-(4-methoxy-3,3-dimethylpiperidin-1-yl)-2-(3-methyl-1H-indol-4-yl)-5,6,7,8-tetrahydropyrido[4,3-d]pyrimidine], the IC50 was found to be 2 nM.

As to `Cc1ccc(C(C)C)cc1N1CCc2nc(-c3cccc4[nH]cc(C)c34)nc(N3CCC[C@@H]3CO)c2C1` [Example 17-AZ, (R)-(1-(6-(5-isopropyl-2-methylphenyl)-2-(3-methyl-1H-indol-4-yl)-5,6,7,8-tetrahydropyrido[4,3-d]pyrimidin-4-yl)pyrrolidin-2-yl)methanol], the half-maximal inhibitory concentration (IC50) turned out to be 39 nM.

Regarding `COc1ccc(Cl)c(-c2cc(C)c3c(n2)CCN(c2cc(C(C)C)ccc2C)C3)c1` [Example 41-F, 2-(2-chloro-5-methoxyphenyl)-6-(5-isopropyl-2-methylphenyl)-4-methyl-5,6,7,8-tetrahydro-1,6-naphthyridine], the IC50 is 550 nM.

As for `Cc1ccc(C(C)C)cc1N1CCc2nc(-c3cccc4[nH]cc(C)c34)nc(N3CC(N(C)C)C3)c2C1` [Example 17-BG, 1-(6-(5-isopropyl-2-methylphenyl)-2-(3-methyl-1H-indol-4-yl)-5,6,7,8-tetrahydropyrido[4,3-d]pyrimidin-4-yl)-N,N-dimethylazetidin-3-amine], the IC50 was found to be 15 nM. As for `CCc1cccc(CC)c1-c1cc(C)c2c(n1)CCN(c1nnnn1C)C2` [Example 48, 2-(2,6-Diethylphenyl)-4-methyl-6-(1-methyl-1H-tetrazol-5-yl)-5,6,7,8-tetrahydro-1,6-naphthyridine], the concentration for half-maximal inhibition (IC50) is 198 nM.

Turning to `CO[C@H]1CCN(c2nc(-c3ccccc3C(F)(F)F)nc3c2CN(c2cc(C4CC4)ccc2C)CC3)CC1(C)C` [Example 19-K, (S)-6-(5-cyclopropyl-2-methylphenyl)-4-(4-methoxy-3,3-dimethylpiperidin-1-yl)-2-(2-(trifluoromethyl)phenyl)-5,6,7,8-tetrahydropyrido[4,3-d]pyrimidine], the 50% inhibitory concentration (IC50) was found to be 65 nM. In the case of `COc1ccc(C)c(N2CCc3nc(-c4c(C)ccc5[nH]ncc45)cc(C)c3C2)c1` [Example 46-C], the IC50 came out at 25 nM. `Cc1ccc(C(C)C)cc1N1CCc2nc(-c3cccc4[nH]cc(C)c34)nc(N3CCC[C@H](O)C3)c2C1` [Example 17-AV, (S)-1-(6-(5-isopropyl-2-methylphenyl)-2-(3-methyl-1H-indol-4-yl)-5,6,7,8-tetrahydropyrido[4,3-d]pyrimidin-4-yl)piperidin-3-ol]: the IC50 was 12 nM.
